Source: patent publication US10035800B2 (AbbVie Inc., priority 2013, dated 2018)

Columns and labels:
[1] = tested on: breast cancer cell line MX-1; assay: MX-1 cell line proliferation assay; assay type: cell-based; settings: MX-1 cells, 3-day proliferation assay, Cell Titer Glo; read-out: Cellular proliferation: EC50
How it was run: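 EC50 comes from sigmoidal fits of Cell Titer Glo luminescence relative to DMSO controls, with assay MSR 2.1. Ten-point 3-fold dilutions (top 3 or 1 μM final) were added to MX-1 breast cancer cells after overnight adhesion. Cells were at 5000/well and proliferation ran 3 days.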

BRD4 (BDII_E352-M457) = biological target: T1, BRD4 (BDII_E352-M457) (Homo sapiens, UniProt O60885); assay: TR-FRET bromodomain binding assay, second bromodomain of BRD4; settings: TR-FRET assay protocol G (compound 0.92 μM-15 pM); 30 nM probe
T1 construct: protocol; made in house
How it was run: (§1)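 His-tagged BRD4 bromodomain (8 nM) was incubated with Eu-anti-His antibody (1 nM) and an Alexa647-labelled BET-inhibitor probe (100 nM for BDI, 30 nM for BDII) in pH 6.0 phosphate buffer with 2% DMSO for 1 h at room temperature. TR-FRET ratio was read, IC50 fitted by 4-parameter logistic, then converted to Ki.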

BRD4 (BDI_K57-E168) = biological target: T2, BRD4 (BDI_K57-E168) (Homo sapiens, UniProt O60885); assay: TR-FRET bromodomain binding assay, first bromodomain of BRD4; settings: TR-FRET assay protocol G (compound 0.92 μM-15 pM); 100 nM probe
T2 construct: BD1: amino acids K57-E168; made in house
How it was run: as §1

COc1cccc(OC)c1C1c2c[nH]c3c(=O)n(C)cc(c23)-c2cc(CS(C)(=O)=O)ccc2N1c1ccc(F)cc1F (racemic) [Example 221, 4-(2,4-difluorophenyl)-3-(2,6-dimethoxyphenyl)-10-methyl-7-((methylsulfonyl)methyl)-3,4-dihydro-1H-1,4,10-triazadibenzo[cd,f]azulen-11(10H)-one]
EC50 [1]: 33 nM
Ki (BRD4 (BDII_E352-M457)): 12.3 nM
Ki (BRD4 (BDI_K57-E168)): 31.6 nM

COCCCC1c2c[nH]c3c(=O)n(C)cc(c23)-c2cc(CS(C)(=O)=O)ccc2N1c1ccc(F)cc1F (stereo not drawn) [Example 147, 4-(2,4-difluorophenyl)-3-(3-methoxypropyl)-10-methyl-7-((methylsulfonyl)methyl)-3,4-dihydro-1H-1,4,10-triazadibenzo[cd,f]azulen-11(10H)-one]
EC50 [1]: 20.3 nM
Ki (BRD4 (BDII_E352-M457)): 0.97 nM
Ki (BRD4 (BDI_K57-E168)): 7.02 nM

Cn1cc2c3c(c[nH]c3c1=O)CN(C(=O)CC(C)(C)C)c1ccc(CS(C)(=O)=O)cc1-2 [Example 107, 4-(3,3-dimethylbutanoyl)-10-methyl-7-((methylsulfonyl)methyl)-3,4-dihydro-1H-1,4,10-triazadibenzo[cd,f]azulen-11(10H)-one]
EC50 [1]: 7.04 nM
Ki (BRD4 (BDII_E352-M457)): 3.79 nM
Ki (BRD4 (BDI_K57-E168)): 6.42 nM

Cn1cc2c3c(c[nH]c3c1=O)C(c1ccc(-n3ccnc3)cc1)N(c1ccc(F)cc1F)c1ccc(CS(C)(=O)=O)cc1-2 (racemic) [Example 234, 3-(4-(1H-imidazol-1-yl)phenyl)-4-(2,4-difluorophenyl)-10-methyl-7-((methylsulfonyl)methyl)-3,4-dihydro-1H-1,4,10-triazadibenzo[cd,f]azulen-11(10H)-one]
EC50 [1]: > 1000 nM
Ki (BRD4 (BDII_E352-M457)): 9.4 nM
Ki (BRD4 (BDI_K57-E168)): 10.3 nM

COC(=O)CCCN1Cc2c[nH]c3c(=O)n(C)cc(c23)-c2cc(F)cc(F)c21 [Example 50, methyl 4-(5,7-difluoro-10-methyl-11-oxo-10,11-dihydro-1H-1,4,10-triazadibenzo[cd,f]azulen-4(3H)-yl)butanoate]
EC50 [1]: 42.2 nM
Ki (BRD4 (BDII_E352-M457)): 5.51 nM
Ki (BRD4 (BDI_K57-E168)): 3.44 nM

Cn1cc2c3c(c[nH]c3c1=O)CN(CC(C)(C)CN1CCOCC1)c1ccc(CS(C)(=O)=O)cc1-2 [Example 257, 4-(2,2-dimethyl-3-morpholinopropyl)-10-methyl-7-((methylsulfonyl)methyl)-3,4-dihydro-1H-1,4,10-triazadibenzo[cd,f]azulen-11(10H)-one]
EC50 [1]: 21.1 nM
Ki (BRD4 (BDII_E352-M457)): 9.19 nM
Ki (BRD4 (BDI_K57-E168)): 2.34 nM

Cn1cc2c3c(c[nH]c3c1=O)CN(CCCc1ccccc1)c1c(F)cc(F)cc1-2 [Example 51, 5,7-difluoro-10-methyl-4-(3-phenylpropyl)-3,4-dihydro-1H-1,4,10-triazadibenzo[cd,f]azulen-11(10H)-one]
EC50 [1]: 174 nM
Ki (BRD4 (BDII_E352-M457)): 13.2 nM
Ki (BRD4 (BDI_K57-E168)): 4.43 nM

Cn1cc2c3c(c[nH]c3c1=O)CN(c1ccc(F)cc1)c1ccc(CC#N)cc1-2 [Example 177, 2-(4-(4-fluorophenyl)-10-methyl-11-oxo-3,4,10,11-tetrahydro-1H-1,4,10-triazadibenzo[cd,f]azulen-7-yl)acetonitrile]
EC50 [1]: 3.72 nM
Ki (BRD4 (BDII_E352-M457)): 1.27 nM
Ki (BRD4 (BDI_K57-E168)): 2.02 nM

CCS(=O)(=O)c1ccc2c(c1)-c1cn(C)c(=O)c3[nH]cc(c13)CN2[C@H](C)c1ccccc1 [Example 265, (R)-7-(ethylsulfonyl)-10-methyl-4-(1-phenylethyl)-3,4-dihydro-1H-1,4,10-triazadibenzo[cd,f]azulen-11(10H)-one]
EC50 [1]: 170 nM
Ki (BRD4 (BDII_E352-M457)): 4.21 nM
Ki (BRD4 (BDI_K57-E168)): 25.6 nM

Cn1cc2c3c(c[nH]c3c1=O)CN(c1cncnc1)c1ccc(CS(C)(=O)=O)cc1-2 [Example 248, 10-methyl-7-((methylsulfonyl)methyl)-4-(pyrimidin-5-yl)-3,4-dihydro-1H-1,4,10-triazadibenzo[cd,f]azulen-11(10H)-one]
EC50 [1]: 25.6 nM
Ki (BRD4 (BDII_E352-M457)): 3.29 nM
Ki (BRD4 (BDI_K57-E168)): 3.39 nM

Cn1cc2c3c(c[nH]c3c1=O)C(C(=O)NCC1CC1)N(c1ccc(F)cc1F)c1ccc(CS(C)(=O)=O)cc1-2 (stereo not drawn) [Example 164, N-(cyclopropylmethyl)-4-(2,4-difluorophenyl)-10-methyl-7-((methylsulfonyl)methyl)-11-oxo-3,4,10,11-tetrahydro-1H-1,4,10-triazadibenzo[cd,f]azulene-3-carboxamide]
EC50 [1]: 72.5 nM
Ki (BRD4 (BDII_E352-M457)): 30 nM
Ki (BRD4 (BDI_K57-E168)): 41.7 nM

CN(NC(=O)CCC1c2c[nH]c3c(=O)n(C)cc(c23)-c2cc(CS(C)(=O)=O)ccc2N1c1ccc(F)cc1F)c1ccccc1 (stereo not drawn) [Example 122, 3-(4-(2,4-difluorophenyl)-10-methyl-7-((methylsulfonyl)methyl)-11-oxo-3,4,10,11-tetrahydro-1H-1,4,10-triazadibenzo[cd,f]azulen-3-yl)-N′-methyl-N′-phenylpropanehydrazide]
EC50 [1]: > 1000 nM
Ki (BRD4 (BDII_E352-M457)): 0.922 nM
Ki (BRD4 (BDI_K57-E168)): 10.8 nM

Cn1cc2c3c(c(C#N)[nH]c3c1=O)CN(c1ccc(Cl)cc1)c1ccccc1-2 [Example 201, 4-(4-chlorophenyl)-10-methyl-11-oxo-3,4,10,11-tetrahydro-1H-1,4,10-triazadibenzo[cd,f]azulene-2-carbonitrile]
EC50 [1]: 27.8 nM
Ki (BRD4 (BDII_E352-M457)): 3.2 nM
Ki (BRD4 (BDI_K57-E168)): 0.85 nM

Cn1cc2c3c(c[nH]c3c1=O)CN(C(=O)Oc1ccc(F)cc1)c1ccc(CS(C)(=O)=O)cc1-2 [Example 94, 4-fluorophenyl 10-methyl-7-((methylsulfonyl)methyl)-11-oxo-10,11-dihydro-1H-1,4,10-triazadibenzo[cd,f]azulene-4(3H)-carboxylate]
EC50 [1]: 6.02 nM
Ki (BRD4 (BDII_E352-M457)): 3.49 nM
Ki (BRD4 (BDI_K57-E168)): 6.03 nM

COC1CCN(C(=O)C2c3c[nH]c4c(=O)n(C)cc(c34)-c3cc(CS(C)(=O)=O)ccc3N2c2ccc(F)cc2)CC1 (stereo not drawn) [Example 40]
EC50 [1]: 398 nM
Ki (BRD4 (BDII_E352-M457)): 136 nM
Ki (BRD4 (BDI_K57-E168)): 29.4 nM

COCC(C)N1Cc2c[nH]c3c(=O)n(C)cc(c23)-c2cc(CS(C)(=O)=O)ccc21 (stereo not drawn) [Example 185, 4-(1-methoxypropan-2-yl)-10-methyl-7-((methylsulfonyl)methyl)-3,4-dihydro-1H-1,4,10-triazadibenzo[cd,f]azulen-11(10H)-one]
EC50 [1]: 28.3 nM
Ki (BRD4 (BDII_E352-M457)): 10.2 nM
Ki (BRD4 (BDI_K57-E168)): 4.19 nM

CC(C)c1ccc(NC(=O)N2Cc3c[nH]c4c(=O)n(C)cc(c34)-c3cc(CS(C)(=O)=O)ccc32)cc1 [Example 69, N-(4-isopropylphenyl)-10-methyl-7-((methylsulfonyl)methyl)-11-oxo-10,11-dihydro-1H-1,4,10-triazadibenzo[cd,f]azulene-4(3H)-carboxamide]
EC50 [1]: 43.1 nM
Ki (BRD4 (BDII_E352-M457)): 3.24 nM
Ki (BRD4 (BDI_K57-E168)): 3.25 nM

10-methyl-7-((methylsulfonyl)methyl)-4-(piperidin-4-ylmethyl)-3,4-dihydro-1H-1,4,10-triazadibenzo[cd,f]azulen-11(10H)-one [Example 37]
EC50 [1]: > 1000 nM
Ki (BRD4 (BDII_E352-M457)): 2.4 nM
Ki (BRD4 (BDI_K57-E168)): 3.36 nM

1-((4-(2,4-difluorophenyl)-10-methyl-7-((methylsulfonyl)methyl)-11-oxo-3,4,10,11-tetrahydro-1H-1,4,10-triazadibenzo[cd,f]azulen-3-yl)methyl)-3-phenylurea [Example 138]
EC50 [1]: 256 nM
Ki (BRD4 (BDII_E352-M457)): 1.94 nM
Ki (BRD4 (BDI_K57-E168)): 22.5 nM
